Experimental data taken from patent US20240383893A1, “Hydroxamic Acid Compound Having ENPP1 Inhibitory Activity and Use Thereof” (Haihe Biopharma Co., Ltd., priority 2021, published 2024).
Like-named read-outs stand apart in the source and are kept apart here.

How the values were obtained:
[1] = Preliminary pharmacokinetic testing in ICR mice (gavage 5 mg/kg, intravenous 1 mg/kg); type: in vivo; conditions: plasma
Description: 1. 6 healthy ICR mice, male, weighing 30-35 g, were randomly divided into 2 groups with 3 mice in each group. The tested compound was administered by gavage (5 mg/kg) and intravenous injection (1 mg/kg), respectively:
Feeding uniformly 4 hours after administration.

ENPP1 (hENPP1-ECD-His) [2] = target: T1, ENPP1 (hENPP1-ECD-His) (Homo sapiens (Human), UniProt P22413); test: biochemical
ENPP1 (hENPP1-ECD-His) [3] = target: T1, ENPP1 (hENPP1-ECD-His)
[4] = male, mouse, oral administration (5 mg/kg)
[5] = male, mouse, po, 5 mg/kg, read-out: oral bioavailability
[6] = male, mouse, oral administration (5 mg/kg), read-out: Cmax

T1 sequence (P22413 98-925): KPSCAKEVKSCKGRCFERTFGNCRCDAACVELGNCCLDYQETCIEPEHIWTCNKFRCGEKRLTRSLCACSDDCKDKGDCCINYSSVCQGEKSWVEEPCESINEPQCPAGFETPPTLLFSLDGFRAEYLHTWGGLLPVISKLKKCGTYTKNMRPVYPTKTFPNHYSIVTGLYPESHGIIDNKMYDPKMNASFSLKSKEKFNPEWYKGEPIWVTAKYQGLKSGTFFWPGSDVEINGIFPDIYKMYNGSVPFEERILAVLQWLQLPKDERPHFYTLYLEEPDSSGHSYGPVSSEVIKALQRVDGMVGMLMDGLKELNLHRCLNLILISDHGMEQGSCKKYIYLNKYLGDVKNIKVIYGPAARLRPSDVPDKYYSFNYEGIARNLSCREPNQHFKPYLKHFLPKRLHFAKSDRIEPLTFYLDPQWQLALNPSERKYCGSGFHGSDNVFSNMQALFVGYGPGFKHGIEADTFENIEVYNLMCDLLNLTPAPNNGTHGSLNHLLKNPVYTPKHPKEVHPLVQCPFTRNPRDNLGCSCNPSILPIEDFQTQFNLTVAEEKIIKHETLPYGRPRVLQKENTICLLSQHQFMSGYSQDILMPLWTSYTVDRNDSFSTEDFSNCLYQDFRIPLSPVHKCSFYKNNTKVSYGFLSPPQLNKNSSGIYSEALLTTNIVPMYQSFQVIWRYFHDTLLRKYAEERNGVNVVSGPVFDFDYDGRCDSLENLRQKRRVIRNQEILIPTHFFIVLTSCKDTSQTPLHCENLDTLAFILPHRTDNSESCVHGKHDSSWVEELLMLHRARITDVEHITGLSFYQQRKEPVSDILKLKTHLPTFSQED

SMILES | AUC(0-t) [1, 4] [ng·h/mL] | half-life [1, 4] [h] | Cmax [1, 6] [ng/mL] | IC50 (ENPP1 (hENPP1-ECD-His) [2]) [nM] | also measured
Cn1ncc2c(Nc3ccc(C(C)(C)C(=O)NO)cc3)ncnc21 [Compound 68] | 161 | 2.44 | 244 | – | bioavailability ([1]; male, mouse, oral administration (5 mg/kg) vs intravenous (1 mg/kg), read-out: F %): 20.2%; IC50 (ENPP1 (hENPP1-ECD-His) [3]): 4.8 nM
CCOC(C(=O)NO)c1ccc(Oc2ccnc3nc(OC)ccc23)cc1 (stereo not shown) [Compound 86] | – | – | – | 3.7 | –
CNc1ccc2c(Oc3ccc(C(C)(C)C(=O)NO)cc3)ccnc2c1 [Compound 102] | – | – | – | 389 | –
COc1ccc2c(Oc3ccc(C(C)(C)C(=O)NO)c(F)c3)ccnc2n1 [Compound 110] | 1590 | 3.9 | 2370 | – | bioavailability [1, 5]: > 20%
COc1ccc2c(Oc3cnn(C(C)(C)C(=O)NO)c3)ccnc2n1 [Compound 155] | – | – | – | 28 | –
COc1cc2nccc(Nc3cnn(C4(C(=O)NO)CCOCC4)c3)c2cn1 [Compound 183] | – | – | – | 6.8 | –
CC(C)C(C(=O)NO)c1ccc(Nc2ncnc3c2cnn3C)cc1 (stereo not shown) [Compound 199] | – | – | – | 317 | –

Now from value to compound, other results behind:

AUC(0-t) [1, 4] [ng·h/mL] | half-life [1, 4] [h] | Cmax [1, 6] [ng/mL] | IC50 (ENPP1 (hENPP1-ECD-His) [2]) [nM] | SMILES | also measured
619 | – | – | – | COc1ccc2c(Oc3ccc(CC(=O)NO)cc3)ccnc2n1 [Compound 2, N-hydroxy-2-(4-((7-methoxy-1,8-naphthylidin-4-yl)oxy)phenyl)acetamide] | bioavailability [1, 5]: > 20%; Cmax ([1]; oral administration (5 mg/kg)): 736 ng/mL; T1/2 ([1]; oral administration (5 mg/kg)): 3.26 h
887 | 1.3 | 1490 | – | COc1ccc2c(Oc3ccc(C(C)(C)C(=O)NO)cc3)ccnc2n1 [Compound 42] | –
– | – | – | 5.3 | COc1ccc2c(Oc3ccc(C(F)C(=O)NO)cc3)ccnc2n1 (stereo not shown) [Compound 43] | –
463 | 2 | 640 | – | COc1ccc2c(Oc3ccc(C4(C(=O)NO)CCOCC4)cc3)ccnc2n1 [Compound 107] | –
